Structures are written as SMILES.

In this assay the test system is HUVEC cell. As to the kind of experiment: Cell Proliferation Inhibition VEGF-R2 Assay (SRB method). It counts as cell-based, homo sapient. The settings on record: Homo sapiens; HUVEC cells, 72 hours exposure, Sulforhodamine B; read-out: IC50 (VEGFR/HUVEC). Put shortly: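 HUVECs grown to ~85% confluence in DMEM/F12 + 10% FBS, then exposed to 6–7 compound concentrations for 72 h at 37 °C, 5% CO2; vehicle controls received 0.5% DMSO medium.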
Background: The SRB assay estimates cell density from bound dye.

In the case of `CCN(CC)CCN1CCc2[nH]c(/C=C3\C(=O)Nc4ncnc(Nc5ccc(F)c(Cl)c5)c43)c(C)c2C1=O` [Example 12, 4-(3-Chlor O-4-fluoro-phenylamino)-5-[5-(2-diethylamino-ethyl)-3-methyl-4-oxo-4,5,6,7-tetrahydro-1H-pyrrolo[3,2-c]pyridine-2-ylmethylene]-5,7-dihydro-pyrrolo[2,3-d]pyrimidin-6-one], the IC50 worked out at 3000 nM.

With `Cc1c(/C=C2\C(=O)Nc3ccc(Cl)cc32)[nH]c2c1C(=O)N(CCN1CCOCC1)CC2` [Example 16, 2-(5-Chloro-2-oxo-1,2-dihydro-indol-3-ylidenemethyl)-3-methyl-5-(2-morpholin-4-yl-ethyl)-1,5,6,7-tetrahydro-pyrrolo[3,2-c]pyridin-4-one], the IC50 was 580 nM. As for `Cc1c(/C=C2\C(=O)Nc3ncnc(Nc4ccc(F)c(Cl)c4)c32)[nH]c2c1C(=O)N(CCN1CCOCC1)CC2` [Example 24, 4-(3-Chloro-4-fluoro-phenylamino)-5-[3-methyl-5-(2-morpholin-4-yl-ethyl)-4-oxo-4,5,6,7-tetrahydro-1H-pyrrolo[3,2-c]pyridine-2-ylmethylenene]-5,7-dihydro-pyrrolo[2,3-d]pyrimidin-6-one], the figure is 2420 nM; as for `CCN(CC)CCN1CCc2[nH]c(/C=C3\C(=O)Nc4cccc(Br)c43)c(C)c2C1=O` [Example 30, 2-(4-Bromo-2-oxo-1,2-dihydro-indol-3-ylidenemethyl)-5-(2-diethylamino-ethyl)-3-methyl-1,5,6,7-tetrahydro-pyrrolo[3,2-c]pyridin-4-one], 220 nM; as for `CCN(CC)CCN1CCc2[nH]c(/C=C3\C(=O)Nc4cccc(C5CCNCC5)c43)c(C)c2C1=O` [Example 31, 5-(2-Diethylamino-ethyl)-3-methyl-2-(2-oxo-4-piperidin-4-yl-1,2-dihydro-indol-3-ylidenemethyl)-1,5,6,7-tetrahydro-pyrrolo[3,2-c]pyridin-4-one], 190 nM. Next, `CCN(CC)CCN1CCc2[nH]c(/C=C3\C(=O)Nc4cccc(-c5ccc(Cl)cc5F)c43)c(C)c2C1=O` [Example 34, 2-[4-(4-Chloro-2-fluoro-phenyl)-2-oxo-1,2-dihydro-indol-3-ylidenemethyl]-5-(2-diethylamino-ethyl)-3-methyl-1,5,6,7-tetrahydro-pyrrolo[3,2-c]pyridin-4-one]: 120 nM; `CCN(CC)CCN1CCc2[nH]c(/C=C3\C(=O)Nc4ccc(OC)cc43)c(C)c2C1=O` [Example 35, 5-(2-Diethylamino-ethyl)-2-(5-methoxy-2-oxo-1,2-dihydro-indol-3-ylidenemethyl)-3-methyl-1,5,6,7-tetrahydro-pyrrolo[3,2-c]pyridin-4-one]: 130 nM.

Turning to `CCN(CC)CCN1CCc2[nH]c(/C=C3\C(=O)Nc4cccc(-c5cccc(Cl)c5F)c43)c(C)c2C1=O` [Example 36, 2-[4-(3-Chloro-2-fluoro-phenyl)-2-oxo-1,2-dihydro-indol-3-ylidenemethyl]-5-(2-diethylamino-ethyl)-3-methyl-1,5,6,7-tetrahydro-pyrrolo[3,2-c]pyridin-4-one], the IC50 amounted to 110 nM.

Turning to `CCN(CC)CCN1CCc2[nH]c(/C=C3\C(=O)Nc4cccc(CCO)c43)c(C)c2C1=O` [Example 37, 5-(2-Diethylamino-ethyl)-2-[4-(2-hydroxy-ethyl)-2-oxo-1,2-dihydro-indol-3-ylidenemethyl]-3-methyl-1,5,6,7-tetrahydro-pyrrolo[3,2-c]pyridin-4-one], the IC50 was 110 nM.

With `CCN(CC)CCN1CCc2[nH]c(/C=C3\C(=O)Nc4cccc(-c5cccc(F)c5F)c43)c(C)c2C1=O` [Example 39, 5-(2-diethylamino-ethyl)-2-[4-(2,3-difluoro-phenyl)-2-oxo-1,2-dihydro-indol-3-ylidenemethyl]-3-methyl-1,5,6,7-tetrahydro-pyrrolo[3,2-c]pyridin-4-one], the IC50 stood at 50 nM. As for `Cc1c(/C=C2\C(=O)Nc3ccc(Br)cc32)[nH]c2c1C(=O)N(CCN1CCCC1)CC2` [Example 40, 2-(5-Bromo-2-oxo-1,2-dihydro-indol-3-ylidenemethyl)-3-methyl-5-(2-pyrrolidin-1-yl-ethyl)-1,5,6,7-tetrahydro-pyrrolo[3,2-c]pyridin-4-one], the figure is 130 nM; as for `Cc1c(/C=C2\C(=O)Nc3cccc(CCO)c32)[nH]c2c1C(=O)N(CCN1CCOCC1)CC2` [Example 42, 2-[4-(2-Hydroxy-ethyl)-2-oxo-1,2-dihydro-indol-3-ylidenemethyl]-3-methyl-5-(2-morpholin-4-yl-ethyl)-1,5,6,7-tetrahydro-pyrrolo[3,2-c]pyridin-4-one], 280 nM; as for `Cc1c(/C=C2\C(=O)Nc3ncc(Br)cc32)[nH]c2c1C(=O)N(CCN1CCOCC1)CC2` [Example 50, 2-(5-Bromo-2-oxo-1,2-dihydro-pyrrolo[2,3-b]pyridin-3-ylidenemethyl)-3-methyl-5-(2-morpholin-4-yl-ethyl)-1,5,6,7-tetrahydro-pyrrolo[3,2-c]pyridin-4-one], 1160 nM.

On to `Cc1c(/C=C2\C(=O)Nc3cccc(C4CCNCC4)c32)[nH]c2c1C(=O)N(CCN1CCOCC1)CC2` [Example 52, 3-Methyl-5-(2-morpholin-4-yl-ethyl)-2-(2-oxo-4-piperidin-4-yl-1,2-dihydro-indol-3-ylidenemethyl)-1,5,6,7-tetrahydro-pyrrolo[3,2-c]pyridin-4-one], for which the IC50 is 260 nM.

With `Cc1c(/C=C2\C(=O)Nc3cccc(-c4cccc(F)c4F)c32)[nH]c2c1C(=O)N(CCN1CCCC1)CC2` [Example 59, 2-[4-(2,3-Difluoro-phenyl)-2-oxo-1,2-dihydro-indol-3-ylidenemethyl]-3-methyl-5-(2-pyrrolidin-1-yl-ethyl)-1,5,6,7-tetrahydro-pyrrolo[3,2-c]pyridin-4-one], the IC50 amounted to 300 nM.
